Source: PubChem BioAssay (NCI)
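A five-concentration, 48-hour dose response in 96-well plates underlies each endpoint, interpolated linearly between surrounding concentrations. TGI: total growth inhibition.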

Key:
Test in all cases: inhibition of tumour cell growth, NCI panel, 48 h
EKVX NSCLC = test system: EKVX NSCLC
HOP-92 NSCLC = test system: HOP-92 NSCLC
COLO 205 colon = test system: COLO 205 colon
U251 CNS = test system: U251 CNS
UO-31 renal = test system: UO-31 renal
IGROV1 ovarian = test system: IGROV1 ovarian
LOX IMVI melanoma = test system: LOX IMVI melanoma
SF-539 CNS = test system: SF-539 CNS
NCI-H460 lung = test system: NCI-H460 lung
SNB-19 CNS = test system: SNB-19 CNS
A498 renal = test system: A498 renal
MALME-3M melanoma = test system: MALME-3M melanoma
RXF-631 renal = test system: RXF-631 renal
LXFL 529 NSCLC = test system: LXFL 529 NSCLC
TK-10 renal = test system: TK-10 renal
SK-MEL-5 melanoma = test system: SK-MEL-5 melanoma
SNB-75 CNS = test system: SNB-75 CNS
UACC-257 melanoma = test system: UACC-257 melanoma
OVCAR-3 ovarian = test system: OVCAR-3 ovarian
HT29 colon = test system: HT29 colon
OVCAR-4 ovarian = test system: OVCAR-4 ovarian
KM20L2 colon = test system: KM20L2 colon
SF-295 CNS = test system: SF-295 CNS
786-0 renal = test system: 786-0 renal
SN12C renal = test system: SN12C renal
HOP-18 NSCLC = test system: HOP-18 NSCLC
HCT-15 colon = test system: HCT-15 colon
NCI-H23 lung = test system: NCI-H23 lung
CAKI-1 renal = test system: CAKI-1 renal
HCC-2998 colon = test system: HCC-2998 colon
CCRF-CEM leukemia = test system: CCRF-CEM leukemia
SF-268 CNS = test system: SF-268 CNS
M19-MEL melanoma = test system: M19-MEL melanoma
SK-MEL-2 melanoma = test system: SK-MEL-2 melanoma
ACHN renal = test system: ACHN renal
SNB-78 CNS = test system: SNB-78 CNS
A549 NSCLC = test system: A549 NSCLC
M14 melanoma = test system: M14 melanoma
RPMI-8226 leukemia = test system: RPMI-8226 leukemia
OVCAR-8 ovarian = test system: OVCAR-8 ovarian
OVCAR-5 ovarian = test system: OVCAR-5 ovarian
XF 498 CNS = test system: XF 498 CNS
KM12 colon = test system: KM12 colon
RXF 393 renal = test system: RXF 393 renal
MOLT-4 leukemia = test system: MOLT-4 leukemia
DLD-1 colon = test system: DLD-1 colon
SK-OV-3 ovarian = test system: SK-OV-3 ovarian
SW-620 colon = test system: SW-620 colon
HL-60(TB) leukemia = test system: HL-60(TB) leukemia
HCT-116 colon = test system: HCT-116 colon
DMS 273 small cell lung = test system: DMS 273 small cell lung
UACC-62 melanoma = test system: UACC-62 melanoma
K-562 leukemia = test system: K-562 leukemia
HOP-62 NSCLC = test system: HOP-62 NSCLC
SK-MEL-28 melanoma = test system: SK-MEL-28 melanoma
NCI-H226 lung = test system: NCI-H226 lung
DMS 114 small cell lung = test system: DMS 114 small cell lung
SR leukemia = test system: SR leukemia

c1ccc2c(c1)CCC/C2=N\OCC1CO1 (configuration not stated)
TGI (EKVX NSCLC): > 100 µM | TGI (HOP-92 NSCLC): > 100 µM | TGI (COLO 205 colon): > 100 µM | TGI (U251 CNS): > 100 µM | TGI (UO-31 renal): > 100 µM | TGI (IGROV1 ovarian): > 100 µM | TGI (LOX IMVI melanoma): > 100 µM | TGI (SF-539 CNS): > 100 µM | TGI (NCI-H460 lung): > 100 µM | TGI (SNB-19 CNS): > 100 µM | TGI (A498 renal): > 100 µM | TGI (MALME-3M melanoma): > 100 µM | TGI (RXF-631 renal): > 100 µM | TGI (LXFL 529 NSCLC): > 100 µM | TGI (TK-10 renal): > 100 µM | TGI (SK-MEL-5 melanoma): > 100 µM | TGI (SNB-75 CNS): > 100 µM | TGI (UACC-257 melanoma): > 100 µM | TGI (OVCAR-3 ovarian): > 100 µM | TGI (HT29 colon): > 100 µM | TGI (OVCAR-4 ovarian): > 100 µM | TGI (KM20L2 colon): > 100 µM | TGI (SF-295 CNS): > 100 µM | TGI (786-0 renal): > 100 µM | TGI (SN12C renal): > 100 µM | TGI (HOP-18 NSCLC): > 100 µM | TGI (HCT-15 colon): > 100 µM | TGI (NCI-H23 lung): > 100 µM | TGI (CAKI-1 renal): > 100 µM | TGI (HCC-2998 colon): > 100 µM | TGI (CCRF-CEM leukemia): > 100 µM | TGI (SF-268 CNS): > 100 µM | TGI (M19-MEL melanoma): > 100 µM | TGI (SK-MEL-2 melanoma): > 100 µM | TGI (ACHN renal): > 100 µM | TGI (SNB-78 CNS): > 100 µM | TGI (A549 NSCLC): > 100 µM | TGI (M14 melanoma): > 100 µM | TGI (RPMI-8226 leukemia): > 100 µM | TGI (OVCAR-8 ovarian): > 100 µM | TGI (OVCAR-5 ovarian): > 100 µM | TGI (XF 498 CNS): > 100 µM | TGI (KM12 colon): > 100 µM | TGI (RXF 393 renal): 98.9 µM | TGI (MOLT-4 leukemia): > 100 µM | TGI (DLD-1 colon): > 100 µM | TGI (SK-OV-3 ovarian): > 100 µM | TGI (SW-620 colon): > 100 µM | TGI (HL-60(TB) leukemia): 92.1 µM | TGI (HCT-116 colon): > 100 µM | TGI (DMS 273 small cell lung): > 100 µM | TGI (UACC-62 melanoma): > 100 µM | TGI (K-562 leukemia): > 100 µM | TGI (HOP-62 NSCLC): > 100 µM

O=S(=O)(N/N=C/c1ccc(/C=N/NS(=O)(=O)c2ccccc2)cc1)c1ccccc1
TGI (EKVX NSCLC): > 100 µM | TGI (HOP-92 NSCLC): 64.8 µM | TGI (COLO 205 colon): 43.1 µM | TGI (U251 CNS): > 100 µM | TGI (SK-MEL-28 melanoma): > 100 µM | TGI (UO-31 renal): > 100 µM | TGI (IGROV1 ovarian): > 100 µM | TGI (LOX IMVI melanoma): 51 µM | TGI (SF-539 CNS): 93.3 µM | TGI (NCI-H460 lung): > 100 µM | TGI (A498 renal): > 100 µM | TGI (NCI-H226 lung): > 100 µM | TGI (MALME-3M melanoma): > 100 µM | TGI (RXF-631 renal): > 100 µM | TGI (TK-10 renal): > 100 µM | TGI (SK-MEL-5 melanoma): > 100 µM | TGI (SNB-75 CNS): > 100 µM | TGI (UACC-257 melanoma): > 100 µM | TGI (OVCAR-3 ovarian): > 100 µM | TGI (HT29 colon): > 100 µM | TGI (OVCAR-4 ovarian): > 100 µM | TGI (KM20L2 colon): > 100 µM | TGI (SF-295 CNS): 45.6 µM | TGI (786-0 renal): > 100 µM | TGI (SN12C renal): > 100 µM | TGI (HOP-18 NSCLC): > 100 µM | TGI (HCT-15 colon): > 100 µM | TGI (NCI-H23 lung): 66.8 µM | TGI (HCC-2998 colon): > 100 µM | TGI (CCRF-CEM leukemia): 90.2 µM | TGI (SF-268 CNS): > 100 µM | TGI (M19-MEL melanoma): > 100 µM | TGI (SK-MEL-2 melanoma): > 100 µM | TGI (ACHN renal): > 100 µM | TGI (SNB-78 CNS): > 100 µM | TGI (A549 NSCLC): > 100 µM | TGI (M14 melanoma): > 100 µM | TGI (RPMI-8226 leukemia): > 100 µM | TGI (OVCAR-8 ovarian): > 100 µM | TGI (OVCAR-5 ovarian): 51 µM | TGI (XF 498 CNS): > 100 µM | TGI (KM12 colon): > 100 µM | TGI (RXF 393 renal): 77.4 µM | TGI (MOLT-4 leukemia): 60.9 µM | TGI (DMS 114 small cell lung): > 100 µM | TGI (SK-OV-3 ovarian): > 100 µM | TGI (HL-60(TB) leukemia): 53.3 µM | TGI (HCT-116 colon): > 100 µM | TGI (DMS 273 small cell lung): > 100 µM | TGI (SR leukemia): > 100 µM | TGI (UACC-62 melanoma): 54.1 µM | TGI (K-562 leukemia): 98.5 µM | TGI (HOP-62 NSCLC): > 100 µM
